# Measured values: US20230293411A1, “BIODEGRADABLE UV ABSORBERS” (BASF SE, priority 2020, published 2023)
# Where a name gives a salt, the structure may show the parent alone. Read-outs that look alike come from different tables or passages of the source.
# What was measured:
# [1] = Absorbance of croconic acid salts in formulation on PMMA plates; format: physicochemical; settings: for Absorbance of the formulation: Formulations 1 and 2, 30 mg on PMMA plate, 15 minutes equilibration, 290-400 nm, FIG. 2, compared to Table 1
# Experimental: The absorbance of Formulation 1 and 2 was determined as follows: […]
# 30 mg milligram of product were evenly spread on roughened PMMA plates (Heliosplate SB6, Helioscreen Creil/France) using a presaturated finger cot. After an equilibration time of 15 minutes transmission measurements between 290 and 400 nm were carried out using a spectrophotometer equipped with an integrating sphere (UV Transmittance Analyzer UV1000-S, Labsphere North Sutton/US).
# [2] = Specific extinction coefficient by UV/VIS spectrophotometry in water; format: physicochemical
# [3] = Biodegradation, OECD 301F manometric respirometry test; settings: inferred from components; the salt itself was not tested
SMILES,Absorbance of the formulation [1],Crystallization after water evaporation ([1]; in formulation on PMMA plate),"E1, 1 (specific extinction coefficient at λmax) ([2]; in water, d=1 cm, at λmax)","Maximum absorbance wavelength (λmax) ([2]; in water, optical pathlength d=1 cm, spectrum 250 nm to 500 nm)","E1, 1 (specific extinction coefficient at λmax) [2]",Maximum absorbance wavelength (λmax) [2],Biodegradability concluded from croconic acid and triethanolamine [3]
"O=c1c([O-])c([O-])c(=O)c1=O.[Na+].[Na+] [Comp. Compound 1, 4,5-Dihydroxy-4-cyclopentene-1,2,3-trione di-Sodium Salt]",lower,crystallization,1996,364 nm,,,
"O=c1c([O-])c([O-])c(=O)c1=O.[K+].[K+] [Comp. Compound 2, 4,5-Dihydroxy-4-cyclopentene-1,2,3-trione di-Potassium Salt]",,,,,1704,364 nm,
"O=c1c(O)c(O)c(=O)c1=O [Compound A, 4,5-Dihydroxy-4-cyclopentene-1,2,3-trione di-triethanolammonium Salt]",within the expected range,,,,844,364 nm,biodegradable
